In patent publication US20230365576A1, “BRM Targeting Compounds And Associated Methods Of Use” (Prelude Therapeutics Incorporated, priority 2022, published 2023):

Assays:
SMARCA2 = molecular target: T1, SMARCA2 (Homo sapiens, UniProt P51531); assay: SMARCA2 HiBiT degradation assay in HeLa cells; assay type: cell-based; conditions: 18 hours; for DC50: read-out: SMARCA2 IC50; for Dmax: HeLa
T1 construct: SMARCA2-HiBiT knock-in Hela monoclonal cell (CS302366); host or cells: HeLa (CRISPR HiBiT knock-in monoclonal line, heterozygous)
T1 sequence (P51531 whole entry): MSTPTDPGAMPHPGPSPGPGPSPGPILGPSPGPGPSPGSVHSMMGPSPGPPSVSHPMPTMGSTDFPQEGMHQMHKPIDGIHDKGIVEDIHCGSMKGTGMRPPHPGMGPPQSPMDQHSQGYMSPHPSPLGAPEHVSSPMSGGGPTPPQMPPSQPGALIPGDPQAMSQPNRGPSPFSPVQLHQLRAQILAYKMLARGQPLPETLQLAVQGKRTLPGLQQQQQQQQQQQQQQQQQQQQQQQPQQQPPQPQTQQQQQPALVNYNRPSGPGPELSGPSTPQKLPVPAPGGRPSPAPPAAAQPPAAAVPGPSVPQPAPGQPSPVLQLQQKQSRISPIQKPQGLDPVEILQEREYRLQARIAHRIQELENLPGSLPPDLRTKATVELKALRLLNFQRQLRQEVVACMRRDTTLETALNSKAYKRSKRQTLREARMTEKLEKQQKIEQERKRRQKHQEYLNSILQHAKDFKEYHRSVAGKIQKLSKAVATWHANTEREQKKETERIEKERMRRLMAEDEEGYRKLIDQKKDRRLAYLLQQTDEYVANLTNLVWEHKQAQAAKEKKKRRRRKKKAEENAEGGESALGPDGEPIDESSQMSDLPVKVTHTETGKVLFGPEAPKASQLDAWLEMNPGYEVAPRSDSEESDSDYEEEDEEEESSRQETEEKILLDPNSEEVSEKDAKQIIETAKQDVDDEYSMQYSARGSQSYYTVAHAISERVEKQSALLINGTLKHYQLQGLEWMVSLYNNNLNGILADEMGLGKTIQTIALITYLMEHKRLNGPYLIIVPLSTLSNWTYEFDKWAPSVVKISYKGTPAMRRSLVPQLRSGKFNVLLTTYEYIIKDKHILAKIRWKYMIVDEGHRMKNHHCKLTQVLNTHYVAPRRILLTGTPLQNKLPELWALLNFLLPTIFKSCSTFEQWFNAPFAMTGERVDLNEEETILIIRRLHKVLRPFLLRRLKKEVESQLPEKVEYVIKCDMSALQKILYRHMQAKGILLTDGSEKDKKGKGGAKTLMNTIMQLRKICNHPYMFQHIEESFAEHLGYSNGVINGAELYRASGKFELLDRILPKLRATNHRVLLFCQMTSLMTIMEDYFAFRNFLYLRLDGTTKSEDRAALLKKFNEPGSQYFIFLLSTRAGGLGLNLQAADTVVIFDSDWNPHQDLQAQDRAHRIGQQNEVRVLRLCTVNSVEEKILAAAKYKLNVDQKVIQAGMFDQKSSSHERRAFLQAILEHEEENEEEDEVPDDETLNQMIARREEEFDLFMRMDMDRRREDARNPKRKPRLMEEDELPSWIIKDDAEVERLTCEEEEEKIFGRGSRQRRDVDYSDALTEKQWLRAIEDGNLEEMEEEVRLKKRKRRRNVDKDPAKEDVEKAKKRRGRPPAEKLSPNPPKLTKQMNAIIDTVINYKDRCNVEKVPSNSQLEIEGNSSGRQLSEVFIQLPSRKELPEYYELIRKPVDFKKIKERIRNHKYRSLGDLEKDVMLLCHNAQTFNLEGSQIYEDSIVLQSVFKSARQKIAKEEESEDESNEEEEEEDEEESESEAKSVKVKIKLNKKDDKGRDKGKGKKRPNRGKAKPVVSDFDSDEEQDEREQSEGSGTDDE
Outline: (§1)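 Degradation measured as HiBiT luminescence (Nano-Glo lytic reagent) after 18 h compound exposure at 37° C. Cells were HeLa clones carrying heterozygous HiBiT tags on SMARCA2 or SMARCA4, 2500 per well; compounds at 3-fold serial dilution from 10 μM.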

SMARCA4 = molecular target: T2, SMARCA4 (Homo sapiens, UniProt P51532); assay: SMARCA4 HiBiT degradation assay in HeLa cells; assay type: cell-based; conditions: 18 hours; for Dmax: HeLa
T2 construct: SMARCA4-HiBiT knock-in Hela monoclonal cell (CS3023226) were purchased from Promega; host or cells: HeLa (CRISPR HiBiT knock-in monoclonal line, heterozygous)
T2 sequence (P51532 whole entry): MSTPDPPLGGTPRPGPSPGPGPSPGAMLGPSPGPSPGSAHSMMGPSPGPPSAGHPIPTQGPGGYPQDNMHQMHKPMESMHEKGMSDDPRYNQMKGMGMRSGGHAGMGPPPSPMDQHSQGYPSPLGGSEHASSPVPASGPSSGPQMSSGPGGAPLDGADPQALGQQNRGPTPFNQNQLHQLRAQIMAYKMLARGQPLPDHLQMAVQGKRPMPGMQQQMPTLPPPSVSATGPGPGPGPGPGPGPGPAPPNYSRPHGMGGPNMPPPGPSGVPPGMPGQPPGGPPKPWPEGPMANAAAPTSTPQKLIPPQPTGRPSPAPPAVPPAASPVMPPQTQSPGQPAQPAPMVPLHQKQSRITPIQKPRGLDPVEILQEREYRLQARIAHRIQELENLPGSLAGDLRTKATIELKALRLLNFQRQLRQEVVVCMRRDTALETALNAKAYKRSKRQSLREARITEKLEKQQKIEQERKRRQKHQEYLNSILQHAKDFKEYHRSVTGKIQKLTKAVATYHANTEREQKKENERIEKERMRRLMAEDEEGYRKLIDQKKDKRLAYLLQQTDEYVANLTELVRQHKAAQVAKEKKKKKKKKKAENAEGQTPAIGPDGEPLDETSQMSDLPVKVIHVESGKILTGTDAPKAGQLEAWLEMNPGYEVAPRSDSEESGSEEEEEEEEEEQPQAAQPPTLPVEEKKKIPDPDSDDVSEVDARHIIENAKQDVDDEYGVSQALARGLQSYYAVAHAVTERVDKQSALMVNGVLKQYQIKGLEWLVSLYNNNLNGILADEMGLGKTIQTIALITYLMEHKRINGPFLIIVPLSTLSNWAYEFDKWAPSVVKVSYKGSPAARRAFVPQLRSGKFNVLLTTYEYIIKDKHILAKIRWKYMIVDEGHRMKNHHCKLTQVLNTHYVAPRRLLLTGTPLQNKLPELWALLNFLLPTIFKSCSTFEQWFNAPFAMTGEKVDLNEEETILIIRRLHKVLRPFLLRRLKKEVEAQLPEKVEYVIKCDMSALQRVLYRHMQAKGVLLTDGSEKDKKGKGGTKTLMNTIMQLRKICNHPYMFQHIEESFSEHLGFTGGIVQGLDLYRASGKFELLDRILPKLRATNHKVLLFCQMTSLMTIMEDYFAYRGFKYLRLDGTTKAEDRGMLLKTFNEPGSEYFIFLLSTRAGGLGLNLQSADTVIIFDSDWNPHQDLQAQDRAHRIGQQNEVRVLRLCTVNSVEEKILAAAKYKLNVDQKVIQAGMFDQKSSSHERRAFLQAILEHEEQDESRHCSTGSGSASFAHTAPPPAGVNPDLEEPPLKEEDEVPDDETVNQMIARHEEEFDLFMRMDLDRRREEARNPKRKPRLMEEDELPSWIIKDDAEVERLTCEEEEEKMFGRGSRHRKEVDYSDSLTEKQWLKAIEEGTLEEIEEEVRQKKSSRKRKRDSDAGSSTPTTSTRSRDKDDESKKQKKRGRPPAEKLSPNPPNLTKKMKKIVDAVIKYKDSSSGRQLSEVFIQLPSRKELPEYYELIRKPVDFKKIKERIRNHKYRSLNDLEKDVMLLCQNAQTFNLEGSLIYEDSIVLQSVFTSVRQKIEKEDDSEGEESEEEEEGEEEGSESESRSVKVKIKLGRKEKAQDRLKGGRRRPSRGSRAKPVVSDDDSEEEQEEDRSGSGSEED
Outline: as §1

Row | SMARCA2 DMax % (SMARCA2) | DC50 (SMARCA2) | DC50 (SMARCA4) | SMARCA4 DMax % (SMARCA4) | Dmax (SMARCA2) | Dmax (SMARCA4) | Structure (SMILES)
1 | – | < 100 nM | < 100 nM | – | – | – | C[C@@H]1C[C@H](CN2CCN(c3ccc4c(c3)C(=O)N([C@H]3CCC(=O)NC3=O)C4)CC2)C[C@H](C)N1C(=O)N1CCN2c3cc(-c4cccc(F)c4O)nnc3NCC2(C)C1 (single isomer, unassigned) [Example 121]
2 | – | < 100 nM | < 100 nM | – | > 75% | > 75% | C[C@@H]1CN(CC2CCN(c3ccc4c(c3)C(=O)N([C@H]3CCC(=O)NC3=O)C4)CC2)C[C@H](C)N1C(=O)N1CCN2c3cc(-c4cccc(F)c4O)nnc3NCC2(C(F)(F)F)C1 (single isomer, unassigned) [Example 95]
3 | – | < 100 nM | < 100 nM | A (A=Dmax>75%) | > 75% | – | CC1(C)CC(CN2CCN(c3ccc4c(c3)C(=O)N([C@H]3CCC(=O)NC3=O)C4)CC2)CCN1C(=O)N1CCN2c3cc(-c4cccc(F)c4O)nnc3NCC2(C)C1 (single isomer, unassigned) [Example 123]
4 | – | < 100 nM | > 1000 nM | – | 50 to 75% | < 50% | CC12CNc3nnc(-c4cccc(F)c4O)cc3N1CCN(C(=O)C1(F)CCN(CC3CCN(c4ccc5c(c4)C(=O)N([C@H]4CCC(=O)NC4=O)C5)CC3)CC1)C2 (single isomer, unassigned) [Example 111]
5 | – | < 100 nM | 100 to 1000 nM | – | > 75% | < 50% | O=C1CCC(N2Cc3ccc(N4CCN(C[C@H]5CC[C@H](C(=O)N6CCN7c8cc(-c9cccc(F)c9O)nnc8NC[C@H]7C6)CC5)CC4)cc3C2=O)C(=O)N1 (stereo partly drawn) [Example 104, 3-(6-(4-(((1S,4r)-4-((S)-2-(3-fluoro-2-hydroxyphenyl)-6,6a,7,8,9,10-hexahydro-5H-pyrazino[1′,2′:4,5]pyrazino[2,3-c]pyridazine-8-carbonyl)cyclohexyl)methyl)piperazin-1-yl)-1-oxoisoindolin-2-yl)piperidine-2,6-dione]
6 | – | < 100 nM | < 100 nM | – | > 75% | > 75% | CCC12CNc3nnc(-c4cc(F)cc(F)c4O)cc3N1CCN(C(=O)C1(F)CCN(CC3CCN(c4ccc5c(c4)C(=O)N([C@H]4CCC(=O)NC4=O)C5)CC3)CC1)C2 (single isomer, unassigned) [Example 109]
7 | – | < 100 nM | < 100 nM | – | > 75% | > 75% | CCC12CNc3nnc(-c4cccc(Cl)c4O)cc3N1CCN(C(=O)C1(F)CCN(CC3CCN(c4ccc5c(c4)C(=O)N([C@H]4CCC(=O)NC4=O)C5)CC3)CC1)C2 (single isomer, unassigned) [Example 106]
8 | – | < 100 nM | < 100 nM | – | > 75% | 50 to 75% | CC12CNc3nnc(-c4cccc(F)c4O)cc3N1CCN(C[C@H]1CC[C@H](CN3CCN(c4ccc5c(c4)C(=O)N(C4CCC(=O)NC4=O)C5)CC3)CC1)C2 (single isomer, unassigned) [Example 115]

Continued, molecule first:

Row | Structure (SMILES) | SMARCA2 DMax % (SMARCA2) | DC50 (SMARCA2) | DC50 (SMARCA4) | SMARCA4 DMax % (SMARCA4) | Dmax (SMARCA2) | Dmax (SMARCA4)
9 | C[C@@H]1CN(CC2CCN(c3ccc4c(c3)C(=O)N(C3CCC(=O)NC3=O)C4)CC2)C[C@H](C)N1C(=O)N1CCN2c3cc(-c4cccc(F)c4O)nnc3NCC2(C)C1 (single isomer, unassigned) [Example 12] | A (A=Dmax>75%) | < 100 nM | < 100 nM | A (A=Dmax>75%) | – | –
10 | CCC12CNc3nnc(-c4cccc(F)c4O)cc3N1CCN(C(=O)N1[C@H](C)CN(CC3CCN(c4ccc5c(c4)C(=O)N(C4CCC(=O)NC4=O)C5)CC3)C[C@@H]1C)C2 (single isomer, unassigned) [Example 88] | A (A=Dmax>75%) | < 100 nM | < 100 nM | A (A=Dmax>75%) | – | –
11 | C[C@@H]1CN(CC2CCN(c3ccc4c(c3)C(=O)N([C@H]3CCC(=O)NC3=O)C4)CC2)[C@@H](C)CN1C(=O)N1CCN2c3cc(-c4cccc(F)c4O)nnc3NC[C@]2(C(F)F)C1 [Example 68, (S)-3-(6-(4-(((2S,5R)-4-((R)-6a-(difluoromethyl)-2-(3-fluoro-2-hydroxyphenyl)-6,6a,7,8,9,10-hexahydro-5H-pyrazino[1′,2′:4,5]pyrazino[2,3-c]pyridazine-8-carbonyl)-2,5-dimethylpiperazin-1-yl)methyl)piperidin-1-yl)-1-oxoisoindolin-2-yl)piperidine-2,6-dione] | – | < 100 nM | < 100 nM | – | > 75% | 50 to 75%
12 | C[C@@H]1CN(C[C@H]2CN(c3ccc4c(c3)CN(C3CCC(=O)NC3=O)C4=O)CCO2)C[C@H](C)N1C(=O)N1CCN2c3cc(-c4cc(F)cc(F)c4O)nnc3NC[C@H]2C1 (stereo partly drawn) [Example 21, 3-(5-((S)-2-(((3R,5S)-4-((S)-2-(3,5-difluoro-2-hydroxyphenyl)-6,6a,7,8,9,10-hexahydro-5H-pyrazino[1′,2′:4,5]pyrazino[2,3-c]pyridazine-8-carbonyl)-3,5-dimethylpiperazin-1-yl)methyl)morpholino)-1-oxoisoindolin-2-yl)piperidine-2,6-dione] | – | < 100 nM | < 100 nM | – | > 75% | < 50%
13 | CCC12CNc3nnc(-c4cccc(F)c4O)cc3N1CCN(C(=O)N1CCN(CC3CCN(c4ccc5c(c4)C(=O)N(C4CCC(=O)NC4=O)C5=O)CC3)CC1(C)C)C2 (mixture of isomers) [Example 32, 2-(2,6-dioxopiperidin-3-yl)-5-(4-((4-(6a-ethyl-2-(3-fluoro-2-hydroxyphenyl)-6,6a,7,8,9,10-hexahydro-5H-pyrazino[1′,2′:4,5]pyrazino[2,3-c]pyridazine-8-carbonyl)-3,3-dimethylpiperazin-1-yl)methyl)piperidin-1-yl)isoindoline-1,3-dione] | – | < 100 nM | < 100 nM | – | 50 to 75% | < 50%
14 | O=C1CCC(N2Cc3ccc(N4CCC(CN5C[C@@H]6[C@H](C5)[C@H]6CN5CCN6c7cc(-c8cc(F)cc(F)c8O)nnc7NC[C@H]6C5)C(F)(F)C4)cc3C2=O)C(=O)N1 (single isomer, unassigned) [Example 41] | A (A=Dmax>75%) | < 100 nM | < 100 nM | B (B=50%<Dmax≤75%) | – | –
15 | CC1(C)CN(CC2CCN(c3ccc4c(c3)C(=O)N(C3CCC(=O)NC3=O)C4)CC2)CCN1C(=O)N1CCN2c3cc(-c4cccc(Cl)c4O)nnc3NCC2(C)C1 (mixture of isomers) [Example 31, 3-(6-(4-((4-(2-(3-chloro-2-hydroxyphenyl)-6a-methyl-6,6a,7,8,9,10-hexahydro-5H-pyrazino[1′,2′:4,5]pyrazino[2,3-c]pyridazine-8-carbonyl)-3,3-dimethylpiperazin-1-yl)methyl)piperidin-1-yl)-1-oxoisoindolin-2-yl)piperidine-2,6-dione] | – | < 100 nM | < 100 nM | – | 50 to 75% | < 50%
16 | CC1(C)CN(CC2CCN(c3ccc4c(c3)C(=O)N([C@H]3CCC(=O)NC3=O)C4)CC2)CCN1C(=O)N1CCN2c3cc(-c4cccc(F)c4O)nnc3NC[C@]2(C(F)F)C1 [Example 65, (S)-3-(6-(4-((4-((R)-6a-(difluoromethyl)-2-(3-fluoro-2-hydroxyphenyl)-6,6a,7,8,9,10-hexahydro-5H-pyrazino[1′,2′:4,5]pyrazino[2,3-c]pyridazine-8-carbonyl)-3,3-dimethylpiperazin-1-yl)methyl)piperidin-1-yl)-1-oxoisoindolin-2-yl)piperidine-2,6-dione] | – | < 100 nM | < 100 nM | – | > 75% | 50 to 75%
17 | C[C@@H]1CN(CC2CCN(c3ccc4c(c3)C(=O)N(C3CCC(=O)NC3=O)C4)CC2)C[C@H](C)N1C(=O)N1CCN2c3cc(-c4cccc(Cl)c4O)nnc3NCC2(C)C1 (single isomer, unassigned) [Example 92] | – | < 100 nM | > 1000 nM | – | > 75% | < 50%
18 | C[C@@H]1CN(CC2CCN(c3ccc4c(c3)C(=O)N([C@@H]3CCC(=O)NC3=O)C4)CC2)C[C@H](C)N1C(=O)N1CCN2c3cc(-c4cc(F)cc(F)c4O)nnc3NC[C@H]2C1 [Example 16, (R)-3-(6-(4-(((3S,5R)-4-((S)-2-(3,5-difluoro-2-hydroxyphenyl)-6,6a,7,8,9,10-hexahydro-5H-pyrazino[1′,2′:4,5]pyrazino[2,3-c]pyridazine-8-carbonyl)-3,5-dimethylpiperazin-1-yl)methyl)piperidin-1-yl)-1-oxoisoindolin-2-yl)piperidine-2,6-dione] | – | < 100 nM | < 100 nM | – | > 75% | < 50%
19 | C[C@@H]1C[C@H](CN2CCN(c3ccc4c(c3)C(=O)N([C@H]3CCC(=O)NC3=O)C4)CC2)C[C@H](C)N1C(=O)N1CCN2c3cc(-c4cccc(F)c4O)nnc3NC[C@]2(C(F)F)C1 [Example 72, (S)-3-(6-(4-(((2R,4R,6S)-1-((R)-6a-(difluoromethyl)-2-(3-fluoro-2-hydroxyphenyl)-6,6a,7,8,9,10-hexahydro-5H-pyrazino[1′,2′:4,5]pyrazino[2,3-c]pyridazine-8-carbonyl)-2,6-dimethylpiperidin-4-yl)methyl)piperazin-1-yl)-1-oxoisoindolin-2-yl)piperidine-2,6-dione] | – | < 100 nM | < 100 nM | – | > 75% | > 75%
20 | O=C1CCC(N2Cc3ccc(N4CCOC(CN5CC6C(C5)C6CN5CCN6c7cc(-c8cc(F)cc(F)c8O)nnc7NCC6C5)C4)cc3C2=O)C(=O)N1 [Example 49, 3-(6-(2-(((1R,5S,6s)-6-(((S)-2-(3,5-difluoro-2-hydroxyphenyl)-5,6,6a,7,9,10-hexahydro-8H-pyrazino[1′,2′:4,5]pyrazino[2,3-c]pyridazin-8-yl)methyl)-3-azabicyclo[3.1.0]hexan-3-yl)methyl)morpholino)-1-oxoisoindolin-2-yl)piperidine-2,6-dione] | – | < 100 nM | < 100 nM | – | > 75% | > 75%
